The text below walks through data of US20230218761A1, “METHOD FOR DECOMPOSING COMPOUND AND COMPOUND” (NATIONAL UNIVERSITY CORPORATION HOKKAIDO UNIVERSITY, priority 2020, published 2023).

Assay type in all cases: physicochemical
Data set [1] is described as follows: Decomposition of compound by X-ray irradiation, residual ratio by HPLC (Examples 5 to 8). As to conditions: 0.5 μM compound in 0.1-M phosphoric acid buffer pH 7.0, bubbled with Ar, X-rays 6 MeV, 20 Gy, 4.4 Gy/min. On the procedure:
HPLC System: HPLC system (produced by Shimadzu Corporation) equipped with a reverse-phase column Inertsil ODS-3 (10 mm×250 mm) (produced by GL Sciences).
Eluent A: 0.1-M triethylamine acetic acid buffer solution
This buffer solution was used as an X-ray irradiation solution for the compound.
The X-ray irradiation solution for the compound was bubbled with Ar and then irradiated with X-rays at 6 MeV (20 Gy, 4.4 Gy/min) using LINAC (linear accelerator).
The peak area ratio was calculated on the basis of the areas of absorption peaks of the compound and methylene blue. The ratio between the concentrations of methylene blue and the compound was determined using the calibration curve. The concentration of the compound was calculated using the known concentration of the methylene blue. Thus, the residual ratio (Post/Pre (%)) of the compound was determined.
Note that, the smaller the residual ratio (Post/Pre (%)), the higher the degree of progress of the decomposition (selectively decomposition of chemical bonds; dissociation of axial ligands) by X-rays.

Data set [2] is described as follows: Impact of pH on decomposition of the compound by X-ray irradiation (residual ratio by HPLC). The following applies: X-rays 6 MeV, 20 Gy absorbed, average of three. How it is done:
In a phosphoric acid buffer solution having a pH of 6 or 7, 5 μM of the compound 2 was dissolved. While degassing was performed using Ar, the resulting mixture was irradiated with X-rays (6 MeV) using LINAC such that the amount of X-rays absorbed was 20 Gy. The sample irradiated with X-rays was analyzed using HPLC as in Example 5 to calculate the residual ratios of the compound 2 at the above pH values. The above calculation was conducted three times for each case, and the average was considered as the residual ratio (Post/Pre (%)) of the compound 2.
In Reference Example 2 where the compound 2 was dissolved in a phosphoric acid buffer solution having a pH of 7, the residual ratio (Post/Pre (%)) at which the compound 2 remained after the X-ray irradiation was 50.0%.
This confirms that, the lower the pH, the higher the likelihood of dissociation of the axial ligands.

A short description of data set [3]: Impact of radical species on decomposition of the compound by X-ray irradiation (residual ratio by HPLC). The following applies: 6 MeV. How it is done:
Sodium formate was added to a 5-μM aqueous solution of the compound 2 as a radical scavenger. While degassing was performed using Ar, the resulting mixture was irradiated with X-rays (6 MeV) using LINAC such that the amount of X-rays absorbed was 2, 3, 4, or 5 Gy. Immediately after the irradiation, the degassing was stopped and the sample irradiated with X-rays was analyzed using HPLC as in Example 5 to calculate the residual ratios of the compound 2 under the above irradiation conditions. Note that, when the amount of X-rays emitted was 5 Gy, the amount of e^−aq (hydrated electrons) produced was 1.6 μM and the amount of CO2^−·(carbon dioxide anion radicals) produced was 1.6 μM. The irradiation and calculation of the residual ratio were conducted three times for each case, and the average was considered as the residual ratio (Post/Pre (%)) of the compound 2.
The residual ratio (Post/Pre (%)) of the compound 2 was calculated as in Reference Example 3, except that the degassing was stopped after the Ar degassing had been maintained 30 minutes subsequent to the X-ray irradiation.
The residual ratio (Post/Pre (%)) of the compound 2 was calculated as in Reference Example 3, except that, instead of sodium formate, sodium formate and nitrous oxide were used as a radical scavenger. Note that, when the amount of X-rays emitted was 5 Gy, the amount of e^−aq (hydrated electrons) produced was 0 μM and the amount of CO2^−·(carbon dioxide anion radicals) produced was 3.1 μM.
The residual ratio (Post/Pre (%)) of the compound 2 was calculated as in Reference Example 5, except that the degassing was stopped after the Ar degassing had been maintained 30 minutes subsequent to the X-ray irradiation.
The residual ratio (Post/Pre (%)) of the compound 2 was calculated as in Reference Example 3, except that the radical scavenger was not used.
The results obtained in Reference Example 3 to 6 confirm that, even in the case where the amount of X-ray (6 MeV) emitted is 10 Gy or less, that is, for example, 2 to 5 Gy, the selective decomposition of the chemical bonds of the compound 2 (dissociation of axial ligands) occurs due to the action of e^−aq (hydrated electrons) and/or CO2^−·(carbon dioxide anion radicals). It was also confirmed that continuing the Ar degassing subsequent to the irradiation enables the selective decomposition of the chemical bonds of the compound 2 to occur.
On the basis of the results obtained in Reference Examples 3 to 6, it is also considered that e^−aq (hydrated electrons) and/or CO2^−·(carbon dioxide anion radicals) contribute to the dissociation of the axial ligands of the compound 2. Since the residual ratio of the compound 2 decreased in the cases where the degassing was maintained, it is also considered that maintaining the degassing causes a radical chain reaction responsible for the dissociation of the axial ligands.

As for “Bis({6-[Tris(3-Sulfopropyl)]Ammoniohexanoyl} Oxide) Silicon Phthalocyanine [Compound 3]”, the “Post/pre (%) residual ratio of the compound after X-ray irradiation” value (“Post/pre (%) residual ratio” for short) in data set [1] is listed as 62.1%.
Same read-out and setting: the figure for “Bis{3-[Tris(3-Sulfopropyl)]Ammoniopropyldimethylsilyl Oxide} Silicon Phthalocyanine [Compound 1]” is 52.5%.
Regarding “Bis{4-[Tris(3-Sulfopropyl)]Ammoniobutyloxide} Silicon Phthalocyanine [Compound 2]”, the “Post/pre (%) residual ratio” value in data set [1] is on record as 46.8%. Moreover, the “residual ratio (Post/Pre (%)) after X-ray irradiation” value in data set [2] (5 μM in phosphoric acid buffer pH 6, Ar degassing) stood at 18.6%; in data set [2] (5 μM in phosphoric acid buffer pH 7, Ar degassing), 50.0%. For the same substance, the “residual ratio (Post/Pre (%))” value in data set [3] (Reference example 3: 5 μM aqueous, sodium formate, Ar degassing stopped immediately after irradiation, 2 Gy absorbed) was 98.4%; in data set [3] (Reference example 3: 5 μM aqueous, sodium formate, Ar degassing stopped immediately after irradiation, 3 Gy absorbed) it was 93.3%; in data set [3] (Reference example 3: 5 μM aqueous, sodium formate, Ar degassing stopped immediately after irradiation, 4 Gy absorbed), 89.5%; in data set [3] (Reference example 3: 5 μM aqueous, sodium formate, Ar degassing stopped immediately after irradiation, 5 Gy absorbed) it was 8.8%; in data set [3] (Reference example 4: sodium formate, Ar degassing maintained 30 minutes after irradiation, 2 Gy absorbed), 100%; in data set [3] (Reference example 4: sodium formate, Ar degassing maintained 30 minutes after irradiation, 3 Gy absorbed) it was 49.9%. The “residual ratio (Post/Pre (%))” value in data set [3] (Reference example 4: sodium formate, Ar degassing maintained 30 minutes after irradiation, 4 Gy absorbed) is reported as 0.3%; in data set [3] (Reference example 4: sodium formate, Ar degassing maintained 30 minutes after irradiation, 5 Gy absorbed), 0%; in data set [3] (Reference example 5: sodium formate and nitrous oxide, degassing stopped immediately after irradiation, 2 Gy absorbed) it was 96.0%; in data set [3] (Reference example 5: sodium formate and nitrous oxide, degassing stopped immediately after irradiation, 3 Gy absorbed) it was 90.4%; in data set [3] (Reference example 5: sodium formate and nitrous oxide, degassing stopped immediately after irradiation, 4 Gy absorbed), 86.2%; in data set [3] (Reference example 5: sodium formate and nitrous oxide, degassing stopped immediately after irradiation, 5 Gy absorbed) it was 8.3%. For the same substance, the “residual ratio (Post/Pre (%))” value in data set [3] (Reference example 6: sodium formate and nitrous oxide, Ar degassing maintained 30 minutes after irradiation, 2 Gy absorbed) is recorded as 93.1%; in data set [3] (Reference example 6: sodium formate and nitrous oxide, Ar degassing maintained 30 minutes after irradiation, 3 Gy absorbed) it was 85.4%; in data set [3] (Reference example 6: sodium formate and nitrous oxide, Ar degassing maintained 30 minutes after irradiation, 4 Gy absorbed), 36.1%; in data set [3] (Reference example 6: sodium formate and nitrous oxide, Ar degassing maintained 30 minutes after irradiation, 5 Gy absorbed), 4.8%; in data set [3] (Reference example 7: no radical scavenger, Ar degassing, 2 Gy absorbed), 100%; in data set [3] (Reference example 7: no radical scavenger, Ar degassing, 3 Gy absorbed), 99.4%. Also, the “residual ratio (Post/Pre (%))” value in data set [3] (Reference example 7: no radical scavenger, Ar degassing, 4 Gy absorbed) turned out to be 99.4%; in data set [3] (Reference example 7: no radical scavenger, Ar degassing, 5 Gy absorbed), 100%.
“Bis{4-[Tris(3-Sulfopropyl)]Ammoniomethylphenoxide} Silicon Phthalocyanine [Compound 4]”: in data set [1], the “Post/pre (%) residual ratio” value is recorded as 74.8%.
